Test results published in patent US20050112128A1, “Inhibition of protein kinase c-mu (PKD) as a treatment for cardiac hypertrophy and heart failure” (Myogen, Inc. and Board of Regents, The University of Texas …, priority 2003, published 2005).
Entries after “also recorded” stand apart in the source; their conditions may differ.

How the values were obtained:
[1] = test system: nuclear export of HDAC5 in COS cells; test: GFP-HDAC5 nuclear export in transfected COS cells (fluorescence microscopy); assay type: cell-based
Procedure: (§1) FIGS. 1A-D—PKC-dependent nuclear export of HDAC5. FIG. 1A. COS cells were cultured on 6-well dishes, transfected with a GFP-HDAC5 expression vector (1 μg) and stimulated with the indicated compounds, as described in Materials and Methods. Sixty minutes after addition of compounds, GFP-HDAC5 distribution was determined by fluorescence microscopy. […] FIG. 1B. COS cells were transfected with expression vectors encoding FLAG-tagged versions of either HDAC5 or an HDAC5 mutant harboring alanines in place of serines 259 and 498 (HDAC5 S259/498A) (1 μg each). Cells were stimulated with PMA for 60 min and HDAC5 distribution was determined by indirect immunofluorescence with anti-FLAG primary antibody and fluorecein-conjugated secondary antibody. HDAC5 259/498A is refractory to PMA stimulation. FIG. 1C. COS cells transfected with GFPHDAC5 encoding expression vector (1 μg) and stimulated with PMA for the indicated times. FIG. 1D. COS cells were transiently transfected with expression vectors encoding FLAG-tagged versions of HDAC5 or HDAC5 S259/498A (1 μg each). Cells were pretreated with the PKC inhibitor bisindolylmaleimide (Bis I; 10 μM) for 30 minutes and stimulated with PMA for 30 min, as indicated. Association of FLAG-HDAC5 with endogenous 14-3-3 was detected by sequential immunoprecipitation and immunoblotting.
Cell culture and transfection assays. COS cells were maintained in DMEM with FBS (10%), L-glutamine (2 mM), and penicillin-streptomycin. Transfection of COS cells was performed with Fugene 6 (Roche Molecular Biochemicals) according to manufacturer's instructions. For HDAC localization experiments, cells were treated 16-24 hours after transfection with PMA (100 nM), ionomycin […], 8-Br-cAMP (1 mM), pCPT-GMP (1 mM), or anisomycin (1 mM). Where noted, specific protein kinase inhibitors were added 30 min prior to the addition of any chemical stimulus. GFP-HDAC5 was visualized with standard fluorescent microscopic techniques. For indirect immunofluorescence of FLAG-HDAC5, COS cells were seeded on glass coverslips, transfected, and treated as above. After specific treatment, cells were fixed with buffered formalin (10%) and stained in PBS containing BSA (3%) and Nonidet P-40 (0.1%). Flag M2 antibody (Sigma) was used at a concentration of 1:200. Secondary fluoresceine-conjugated antibody (Vector Laboratories) was also used at a concentration of 1:200. Staining of cardiomyocytes for sarcomeres and atrial natriuretic factor (ANF) was performed by indirect immunofluorescence detection as above with antibodies directed against sarcomeric α-actinin (Sigma) and ANF (Peninsula Laboratories), respectively.

[2] = test system: NRVMs; test: ANF immunostaining of cardiomyocytes (hypertrophy marker); assay type: cell-based, rat; conditions: PE 20 μM or PMA 100 nM, 24 hrs
Procedure: FIGS. 3A-C—Inhibition of PKC-mediated cardiac hypertrophy by signalresistant HDAC5. NRVMs were cultured on 6-well dishes and infected with adenoviruses (MOI=10) encoding a LacZ control (Ad-LacZ) or FLAG-tagged HDAC5 harboring alanines in place of serines 259 and 498 (Ad-HDAC5 S/A), which are required for 14-3-3-mediated nuclear export. Cells were treated with PE (20 μM) or PMA (100 nM) for 24 hrs prior to analysis. FIG. 3A. Cells were fixed and sarcomeres visualized by indirect immunofluorescence with primary antibody specific for α-actinin and fluorescein-conjugated secondary antibody. FIG. 3B. ANF protein was detected by indirect immunofluorescence with anti-ANF primary antibody. FIG. 3C. Total RNA was harvested from cells and subjected to dot blot analysis with radiolabeled oligonucleotides specific for the indicated transcripts. RNA levels were quantified using a phosphorimager and are depicted as -fold change relative to amounts in unstimulated cells infected with Ad-LacZ. Values were normalized to GAPDH controls.
Cell culture and transfection assays. COS cells were maintained in DMEM with FBS (10%), L-glutamine (2 mM), and penicillin-streptomycin. Transfection of COS cells was performed with Fugene 6 (Roche Molecular Biochemicals) according to manufacturer's instructions. […]

[3] = test system: PKD; test: In vitro kinase assay with FLAG-HDAC5 immunoprecipitated from COS cells co-transfected with PKD; assay type: cell-based; conditions: PMA 30 min
Description: FIGS. 5A-E—Protein kinase D is an HDAC5 kinase. FIG. 5A. Amino acid sequences surrounding the regulatory phosphorylation sites of class II HDACs. NLS: nuclear localization signal; HDAC domain: deacetylase catalytic domain. The consensus target site for PKD is shown. Leucine at position −5 relative the phosphorylation site is required for optimal PKD-directed phosphorylation of other proteins. FIG. 5B. COS cells were transfected with an expression vector encoding GFP fused to HDAC5 harboring glycines in place of leucines 254 and 493 (L254/493G). Twenty-four hrs post-transfection, cells were left untreated (control) or stimulated with PMA for 30 minutes. FIG. 5C. […] HDAC5 localization was determined 24 hrs post-transfection. FIG. 5D. […] Twenty-four hrs post-transfection, cells were treated with PMA or vehicle control for 30 min. FLAG-HDAC5 was immunoprecipitated from whole-cell protein lysates and either incorporated into an in vitro kinase assay (IVK) or resolved by SDS-PAGE for western blot analysis to detect associated PKD, as indicated. Phosphorylated HDAC5 was resolved by SDS-PAGE and detected by autoradiography. FIG. 5E. Mammalian two-hybrid assay. […]

[4] = test system: association of 14-3-3 with HDAC5; test: Co-immunoprecipitation of FLAG-HDAC5 with endogenous 14-3-3 in COS cells; assay type: cell-based; conditions: FLAG-HDAC5, PMA 30 min
Procedure: as §1, with “COS cells were transiently transfected with expression vectors encoding FLAG-tagged versions of HDAC5 or HDAC5 S259/498A (1 μg each). Cells were pretreated with the PKC inhibitor bisindolylmaleimide (Bis I; 10 μM) for 30 minutes and stimulated with PMA for 30 min, as indicated.” left out
Co-immunoprecipitation assays. […] Associated PKD was detected by immunoblotting with rabbit polyclonal antibodies against either PKD-1, PKD-1 phosphorylated at serines 744 and 748, or PKD-1 phosphorylated at serine 916 (Cell Signaling Technologies) were employed at 1:1000 dilutions.

[5] = test system: HDAC5-bound PKD; assay type: biochemical, rat; conditions: NRVMs infected with Ad-FLAG-HDAC5; PMA 30 min

CCCCCCCCCCCCCC(=O)O[C@@H]1[C@@H](C)[C@@]2(O)[C@@H](C=C(CO)C[C@]3(O)C(=O)C(C)=C[C@@H]23)[C@@H]2C(C)(C)[C@]12OC(C)=O [PMA, Phorbol 12-myristate 13-acetate]
stimulation of nuclear export of GFP-HDAC5 ([1]; COS cells transfected with GFP-HDAC5, 60 min after addition of compounds): complete relocalization of GFP-HDAC5 from the nucleus to the cytoplasm; also recorded: stimulated nuclear export of GFP-HDAC5; also recorded: more potent stimulator of export than ionomycin | time to complete HDAC5 nuclear export following addition of PMA ([1]; COS cells, GFP-HDAC5): ≤ 30 min | time to initiation of HDAC5 nuclear export following addition of PMA ([1]; COS cells, GFP-HDAC5): ≤ 15 min | ANF protein expression [2]: prominent perinuclear ANF protein expression | HDAC5 phosphorylation after PMA, activated PKD S/E co-transfected ([3]; FLAG-HDAC5 + PKD S/E): enhanced phosphorylation of HDAC5 | HDAC5 phosphorylation after PMA, wild-type PKD co-transfected ([3]; FLAG-HDAC5 + PKD): increased the degree of HDAC5 phosphorylation | association of 14-3-3 with HDAC5 [4]: enhanced | HDAC5 phosphorylation after treatment of cells with PMA [5]: Increased HDAC5 phosphorylation
